Data reported in US20030068321A1, “Methods of effecting neuronal activity” (Guilford Pharmaceuticals, Inc., priority 2001, published 2003).
“Also recorded” adds a separate entry of the source. Peptide text beside a SMILES is read from it.

Test system: chick sensory neurons from dorsal root ganglia
Experiment: Chick dorsal root ganglion cultures and neurite outgrowth
Format: cell-based
Settings: 1 mM concentration; whole DRG explants, forty-eight hours after drug treatment
Description: Dorsal root ganglia were dissected from chick embryos of ten-day gestation. Whole ganglion explants were cultured on thin layer Matrigel-coated 12 well plates with Liebovitz L15 plus high glucose media supplemented with 2 mM glutamine and 10% fetal calf serum, and also containing 10 μM cytosine […] (Ara C) at 37° C. in an environment containing 5% CO2. Twenty-four hours later, the DRGs were treated with various concentrations of nerve growth factor, immunophilin ligands or combinations of NFG plus drugs. Forty-eight hours after drug treatment, the ganglia were visualized under phase contrast or Hoffman Modulation contrast with a Zeiss Axiovert inverted microscope. Photomicrographs of the explants were made, and neurite outgrowth was quantitated. Neurites longer that the DRG diameter were counted as positive, with total number of neurites quantitated per each experimental condition. Three to four DRGs are cultured per well, and each treatment was performed in duplicate.
The maximal increase in the number of processes, their length and branching is quite similar at maximally effective […] of the cyclophilin ligands and of NGF (100 ng/ml). With progressively increasing concentrations of the various drugs, one observes a larger number of processes, more extensive branching and a grater length of individual processes.

CC(=O)N1CCC[C@H]1C(=O)NCC(=O)N1CCC[C@H]1C(=O)N[C@@H](Cc1ccccc1)C(N)=O [compound 1] (Ac-PGPF-NH2)
neurotrophic effects (promotion of neurite outgrowth in chick sensory neurons): promotion of neurite outgrowth; also recorded: powerful neurotrophic effects

CC(=O)N1CCC[C@H]1C(=O)N[C@@H](C)C(=O)N1CCC[C@H]1C(=O)N[C@@H](C)C(N)=O [compound 2] (Ac-PAPA-NH2)
neurotrophic effects (promotion of neurite outgrowth in chick sensory neurons): promotion of neurite outgrowth; also recorded: potent neurotrophic effects
